Patent US7105529B2, “Substituted oxindole derivatives as protein tyrosine and as protein serine/threonine kinase inhibitors and compositions and methods of treating chemotherapy and radiation therapy side effects” (SmithKline Beecham Corporation, priority 1997, dated 2006)

How the values were obtained:
CDK2 = CDK2 (Homo sapiens, UniProt P24941); test: CDK2 substrate phosphorylation assay; type: biochemical
Experimental: CDK1 and CDK2 were both expressed utilizing a baculovirus expression system and were partially purified to comprise 20–80% of total protein, with no detectable competing reactions present. […] Reactions were terminated with 0.2–2 volumes of either 20% acetic acid or 50–100 mM EDTA buffered to pH 7 (substrate consumption <20%). The buffer employed in enzyme assays was either 30 mM HEPES 7.4 containing 0.15 M NaCl and 5% DMSO, the buffer 50 mM MOPS 7.0 containing 0.15 M NaCl and 5% DMSO, or the buffer 100 mM HEPES pH 7.5 containing 0.1 mg/mL BSA and 5% DMSO. Inhibitors were diluted in 100% DMSO prior to addition into the assay. Detection of peptide phosphorylation was accomplished by scintillation counting following either collection of peptide onto phosphocellulose filters (for reactions stopped with acetic acid), collection of peptide in wells of 96 well plates coated with Streptavidin (Pierce) (reactions were stopped with EDTA), or addition of Avidin coated Scintillant impregnated beads (Scintillation Proximity Assays from Amersham, reactions were stopped with EDTA).
CDK1 and CDK2 were both expressed utilizing a baculovirus expression system and were partially purified to comprise 20–80% of total protein, with no detectable competing reactions present. […]

[1] = system: RKO colon adenocarcinoma cells; test: FACS assay (cell death), RKO; type: cell-based; conditions: Homo sapiens; 50% cell death, 72 h
Experimental: (§1) These assays allow determination of both cell death and changes in cell cycle profile in cells following treatment of the compound. The assay is performend as follows: • 1. Cells are incubated in DMEM to which 10% FCS has been added in a humidified incubator at 37° C. and 5% by volume of CO2 in air. The cells are innoculated in 6-well plates at a density of 0.5–5×10^5 cells per well. • 2. The test compound is added in serial dilutions 24–36 h after plating in 0.5% DMSO. The plates are then incubated a further 72 h in the presence of the compound. During this time, cells in control cultures undergo at least three cell divisions. • 3. After incubation, the media is collected and cells are harvested by trypsinization. The cells and media are pooled and pelleted by centrifugation. • 4. The cell pellet is fixed in a final volume of 3 mL of 50% ice cold MeOH and incubated for a minimum of 30 min at −20° C. • 5. The cells are pelleted by centrifugation and resuspended in 0.5 mL PBS containing 1%FCS, […] Propidium Iodide (PI) and […] RNase A and incubated 30 min at 37° C. in the dark. • 6. The samples are analysed by flow cytometry using the relative incorporation of PI as a measure of DNA content of each cell. The % Dead cells is recorded as % of events with less than 2N DNA. […] HDF are normal diploid fibroblast cells. […]

VEGFR-2 = VEGFR-2 (Homo sapiens, UniProt P35968); test: VEGFR-2 kinase assay; type: biochemical; conditions: read-out: VEGFR2 (IC50)
Experimental: The kinase domain of the enzyme was purified to homogeneity from a baculovirus expression system. The enzyme was preactivated on ice for 15 min in the presence of 100 μM ATP and 20 mM MgCl2, and stored at −80° C. until needed for assay. The activated enzyme was diluted to 0.4 nM into a 60 μl reaction containing 100 mM HEPES, pH 7.5, 5 μM ATP, 10 mM MgCl2, 5 μM peptide, 0.1 mM DTT, 0.05 mg/ml BSA, and an inhibitor at varying concentrations. The controls were reactions in the presence (negative controls) or absence (positive controls) of 50 mM EDTA. Reactions were incubated for 30 min at room temperature, and then quenched by the addition of EDTA to 60 mM in 210 μl. The quenched samples (190 μl) were transferred to a neutravidin-coated plate (Pierce) and incubated at room temperature for 40 min to allow biotinylated peptide to bind to the neutravidin. The unbound components of the reaction were removed by washing with a plate washer, then 200 μl HRP-PY20 anti-phosphotyrosine antibody conjugate was added to each well. After incubation for 40 min, the plate was washed to remove any unbound anitbody. A HRP substrate, K-blue (Neogen) was added and the reaction was quenched with Red Stop (Neogen) after 20 min. The absorbance of the wells was read at A650 in a plate reader. IC50 values were obtained by fitting raw data to A650=VMAX*(1−[I]/IC50+[I])))+b, where b is background.

Lck = Lck (Homo sapiens, UniProt P06239); test: Lck kinase assay (ELISA or isotope format); type: biochemical
Experimental: The src and Ick proteins were purified to homogeneity from a baculovirus expression system and preactivated before adding to assay mixtures. The maximum activation was achieved by incubating concentrated enzyme (10–30 mM) on ice for 40 min in the presence of 1 mM ATP and 10 mM MgCl2 in 100 mM HEPES, pH 7.5. The activated enzyme was diluted to 2 nM into a 50-mL reaction mixture containing 100 mM HEPES, pH 7.5, 5 mM ATP, 10 mM MgCl2, 2 mM peptide, 0.05 mg/mL BSA, and an inhibitor at varying concentrations and with or without 8 mCi/mL [γ-^33P]ATP dependent upon the method of analysis for the extent of reaction. The controls were reactions in the presence (negative controls) or absence (positive controls) of 50 mM EDTA. Reactions were allowed to proceed for 30 min at room temperature and quenched with addition of EDTA to 50 mM in 220 mL. The extent of reactions was analyzed in one of the two ways: an Elisa-based and a radioactive isotope-based. The quenched samples (200 mL) were transferred to a neutravidin coated plate (Perice) and incubated at room temperature for 40 min to allow biotinylated peptide to bind to neutravidin. The unbound peptide and the rest of the solution was washed away using a plate washer. […] The plate was read at A625 in a plate reader. […] The plate was sealed and counted in a micro-b-counter (Wallac). […]

UL97 = target: T1, UL97 (Human cytomegalovirus, UniProt P16788); test: UL97 protein kinase assay (32P transfer to histone H2B); type: biochemical
T1 construct: GST; made in house; host or cells: sf9 cells (baculovirus vector)
Experimental: UL97 was produced as a GST fusion protein from a baculovirus vector expressed in sf9 cells as described by He (He, et al., Journal of Virology 1997, 71, 405–11). UL97 was assayed as a protein kinase using ^32P transfer from ATP to histone H2B with detection of radiolabeled histone bound to phosphocellulose. Assay mixes for testing inhibitors of UL97 activity contained 2 mM [γ^32P]-ATP, 15 mM histone H2B, 50 mM sodiumCHES, pH 9.5, 1 M NaCl, 2 mM dithiothreitol and 10 mM MgCl2. Inhibitors were dissolved in diluted DMSO to give a final DMSO concentration in the reaction of 1% DMSO. After incubation at 20° C., the reactions were terminated by addition of 10 volumes of 75 mM phosphoric acid, 30 mM ATP, 1 mM EDTA, then were spotted onto phosphocellulose filters and washed four times with 75 mM phosphoric acid. Radioactivity was determined by liquid scintillation counting.

MES/SA cells = test: FACS assay (cell death), MES/SA; type: cell-based; conditions: Homo sapiens, 50% cell death, 72 h
Experimental: as §1

cSrc = cSrc (Homo sapiens, UniProt P12931); test: Src kinase assay (ELISA or isotope format); type: biochemical
Experimental: The peptide substrates used in Src and Lck assays were biotin-aminohexyl-EEIYGEF-NH2 (Src) and biotin-aminohexyl-[…]-NH2 (Lck). The src and Ick proteins were purified to homogeneity from a baculovirus expression system and preactivated before adding to assay mixtures. The maximum activation was achieved by incubating concentrated enzyme ([…]) on ice for 40 min in the presence of 1 mM ATP and 10 mM MgCl2 in 100 mM HEPES, pH 7.5. The activated enzyme was diluted to 2 nM into a […] reaction mixture containing 100 mM HEPES, pH 7.5, 5 mM ATP, 10 mM MgCl2, 2 mM peptide, 0.05 mg/mL BSA, and an inhibitor at varying concentrations and with or without 8 mCi/mL [γ-^33P]ATP dependent upon the method of analysis for the extent of reaction. The controls were reactions in the presence (negative controls) or absence (positive controls) of 50 mM EDTA. Reactions were allowed to proceed for 30 min at room temperature and quenched with addition of EDTA to 50 mM in […]. The extent of reactions was analyzed in one of the two ways: an Elisa-based and a radioactive isotope-based. The quenched samples ([…]) were transferred to a neutravidin coated plate (Perice) and incubated at room temperature for 40 min to allow biotinylated peptide to bind to neutravidin. […] The plate was read at A625 in a plate reader. […] The plate was sealed and counted in a micro-b-counter (Wallac). […]

Sequence of cSrc (P12931 whole entry): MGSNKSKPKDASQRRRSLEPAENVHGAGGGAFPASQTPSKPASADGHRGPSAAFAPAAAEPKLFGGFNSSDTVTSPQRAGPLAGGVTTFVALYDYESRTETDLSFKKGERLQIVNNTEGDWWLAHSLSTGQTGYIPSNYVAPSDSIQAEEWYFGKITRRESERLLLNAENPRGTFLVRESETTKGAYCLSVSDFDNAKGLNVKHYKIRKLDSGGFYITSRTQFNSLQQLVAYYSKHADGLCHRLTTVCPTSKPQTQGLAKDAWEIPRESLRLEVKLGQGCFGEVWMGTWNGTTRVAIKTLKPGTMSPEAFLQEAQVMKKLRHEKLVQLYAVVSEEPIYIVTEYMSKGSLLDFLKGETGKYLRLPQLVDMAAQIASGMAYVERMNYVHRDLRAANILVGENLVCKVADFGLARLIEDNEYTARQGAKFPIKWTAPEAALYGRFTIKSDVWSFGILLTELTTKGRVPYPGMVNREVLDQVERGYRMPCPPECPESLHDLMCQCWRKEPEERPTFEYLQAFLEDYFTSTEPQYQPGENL
Sequence of Lck (P06239 whole entry): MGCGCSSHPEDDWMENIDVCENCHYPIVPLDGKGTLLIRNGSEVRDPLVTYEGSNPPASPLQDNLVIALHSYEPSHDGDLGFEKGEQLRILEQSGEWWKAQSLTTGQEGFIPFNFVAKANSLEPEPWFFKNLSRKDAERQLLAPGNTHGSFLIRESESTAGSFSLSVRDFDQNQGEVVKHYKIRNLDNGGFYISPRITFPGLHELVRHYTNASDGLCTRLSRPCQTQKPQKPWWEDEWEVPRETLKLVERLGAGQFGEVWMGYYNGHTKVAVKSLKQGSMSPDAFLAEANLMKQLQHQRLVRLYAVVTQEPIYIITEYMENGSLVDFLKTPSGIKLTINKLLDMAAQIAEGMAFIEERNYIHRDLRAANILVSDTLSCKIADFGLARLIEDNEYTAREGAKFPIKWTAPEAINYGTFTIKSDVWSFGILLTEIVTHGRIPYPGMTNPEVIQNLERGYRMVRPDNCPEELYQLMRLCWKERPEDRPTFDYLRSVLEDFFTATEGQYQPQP
Sequence of VEGFR-2 (P35968 834-1162 limits assumed): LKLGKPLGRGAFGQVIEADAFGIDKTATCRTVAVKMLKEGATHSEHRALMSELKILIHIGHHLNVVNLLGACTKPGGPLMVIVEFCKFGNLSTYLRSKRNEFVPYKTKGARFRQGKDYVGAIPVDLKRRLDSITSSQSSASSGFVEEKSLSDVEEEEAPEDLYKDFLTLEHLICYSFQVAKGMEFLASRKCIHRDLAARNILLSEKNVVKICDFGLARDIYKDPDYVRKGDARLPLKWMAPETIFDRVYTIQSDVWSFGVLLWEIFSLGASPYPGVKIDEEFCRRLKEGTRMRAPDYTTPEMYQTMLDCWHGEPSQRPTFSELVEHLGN
T1 sequence (P16788 whole entry): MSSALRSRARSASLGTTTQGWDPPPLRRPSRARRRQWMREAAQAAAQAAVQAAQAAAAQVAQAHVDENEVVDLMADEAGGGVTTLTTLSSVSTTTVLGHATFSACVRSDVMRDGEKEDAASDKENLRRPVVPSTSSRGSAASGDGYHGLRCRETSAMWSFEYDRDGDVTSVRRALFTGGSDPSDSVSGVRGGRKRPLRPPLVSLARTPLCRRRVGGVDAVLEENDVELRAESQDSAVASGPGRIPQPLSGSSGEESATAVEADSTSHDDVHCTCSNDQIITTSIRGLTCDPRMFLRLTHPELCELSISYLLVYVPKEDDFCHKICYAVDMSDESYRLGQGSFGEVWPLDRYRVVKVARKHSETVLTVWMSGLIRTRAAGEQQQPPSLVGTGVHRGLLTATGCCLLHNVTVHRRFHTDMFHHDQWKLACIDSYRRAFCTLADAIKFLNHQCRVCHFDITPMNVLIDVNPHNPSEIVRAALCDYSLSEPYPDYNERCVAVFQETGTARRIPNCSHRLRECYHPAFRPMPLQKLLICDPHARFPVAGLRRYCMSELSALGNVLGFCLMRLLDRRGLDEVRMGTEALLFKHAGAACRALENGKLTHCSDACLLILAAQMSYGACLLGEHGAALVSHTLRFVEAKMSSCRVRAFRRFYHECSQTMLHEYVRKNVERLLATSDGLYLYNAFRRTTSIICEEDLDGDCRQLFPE

Row | Structure (SMILES) | IC50 (CDK2) [nM] | IC50 [1] [nM] | IC50 (VEGFR-2) [nM] | IC50 (Lck) [nM] | IC50 (UL97) [nM] | IC50 (MES/SA cells) [nM] | IC50 (cSrc) [nM]
1 | COC(=O)c1ccc2c(c1)/C(=C/Nc1ccc(S(N)(=O)=O)cc1)C(=O)N2 [Example 27] | 1 to 10 | 1100 to 5000 | – | – | – | – | –
2 | NS(=O)(=O)c1ccc(NN=C2C(=O)Nc3ccc(-c4cnco4)cc32)cc1 [Example 36] | – | – | > 100 | > 100 | 11 to 50 | 100 to 500 | > 100
